Source: patent US20260184663A1, “INDENE COMPOUNDS, PHARMACEUTICAL COMPOSITIONS THEREOF, AND THEIR THERAPEUTIC APPLICATIONS” (NucMito Pharmaceuticals co. Ltd., priority 2022, published 2026)

How the values were obtained:
Type in all cases: cell-based
[1] = system: MDA-MB-231 (breast cancer); test: Antiproliferative activity (CCK-8 cell viability), MDA-MB-231; settings: Homo sapiens, 72 h, read-out: Antiproliferative activity in cancerous cells, MDA-MB-231 (inhibition of cell growth); for inhibition at 3.3 µM: Compound concentration: 3.3 μM; for inhibition at 10 µM: Compound concentration: 10 μM
Outline: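 In this CCK-8 viability assay, MDA-MB-231 cells maintained in Dulbecco's modified Eagle's medium containing 10% fetal bovine serum were placed in 96-well plates (2,000-5,000 cells/well) and treated with compound for 72 h at 37° C. A 4 h incubation with 10 μL CCK-8 followed, plates were read at 450 nm, and viability was expressed against DMSO vehicle wells across replicates.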

HepG2 (liver cancer) = test: Antiproliferative activity (CCK-8 cell viability), HepG2; settings: Homo sapiens, 72 h, read-out: Antiproliferative activity in cancerous cells, HepG2 (inhibition of cell growth); for inhibition at 3.3 µM: Compound concentration: 3.3 μM; for inhibition at 10 µM: Compound concentration: 10 μM
Outline: (§1)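 Cells were seeded at 2,000-5,000/well (HeLa in MEM, HepG2 and SW480 in DMEM, A549 in F-12K, all with 10% FBS) and treated with compound at 3.3, 10 or 30 μM for 72 h at 37° C. CCK-8 was added for 4 h, absorbance was read at 450 nm, and viability was expressed relative to DMSO-treated wells.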

HeLa (cervical cancer) = test: Antiproliferative activity (CCK-8 cell viability), HeLa; settings: Homo sapiens, 72 h, read-out: Antiproliferative activity in cancerous cells, HELA (inhibition of cell growth); for inhibition at 3.3 µM: Compound concentration: 3.3 μM; for inhibition at 10 µM: Compound concentration: 10 μM
Outline: as §1

[2] = system: A549 (lung adenocarcinoma); test: Antiproliferative activity (CCK-8 cell viability), A549; settings: Homo sapiens, 72 h, read-out: Antiproliferative activity in cancerous cells, A549 (inhibition of cell growth); for inhibition at 3.3 µM: Compound concentration: 3.3 μM; for inhibition at 10 µM: Compound concentration: 10 μM
Outline: as §1

SW480 (colon cancer) = test: Antiproliferative activity (CCK-8 cell viability), SW480; settings: Homo sapiens, 72 h, read-out: Antiproliferative activity in cancerous cells, SW480 (inhibition of cell growth); for inhibition at 3.3 µM: Compound concentration: 3.3 μM; for inhibition at 10 µM: Compound concentration: 10 μM
Outline: as §1

[3] = system: B16F10 (malignant melanoma); test: Antiproliferative activity (CCK-8 cell viability), B16F10; settings: Mus musculus, 72 h, read-out: Antiproliferative activity in cancerous cells, B16F10 (inhibition of cell growth); for inhibition at 3.3 µM: B16-F10, Compound concentration: 3.3 μM; for inhibition at 10 µM: B16-F10, Compound concentration: 10 μM
Outline: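 Attached B16F10 cells in 96-well plates were incubated with compound at 37° C for 72 h, followed by 10 μL CCK-8 reagent per well and a further 4 h incubation. A multi-well plate reader measured absorbance at 450 nm. Percent viability across replicates was calculated against DMSO vehicle-treated cells.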

[4] = system: A431 (epidermoid carcinoma); test: Antiproliferative activity (CCK-8 cell viability), A431; settings: Homo sapiens, 72 h, read-out: Antiproliferative activity in cancerous cells, A431 (inhibition of cell growth); for inhibition at 3.3 µM: A-431, Compound concentration: 3.3 μM; for inhibition at 10 µM: A-431, Compound concentration: 10 μM
Outline: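 Cell viability of compound-treated A431 cells was measured with a Cell Counting Kit-8. Each well received 10 μL of CCK-8 after 72 h of compound exposure, followed by 4 h incubation at 37° C. and a 450 nm plate-reader measurement. Percent viability was calculated relative to DMSO controls across replicates.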

[5] = system: alpha-smooth muscle actin (α-SMA); test: Inhibition of TGF-β induced expression of alpha-smooth muscle actin (α-SMA) in CFSC cells (western blot); settings: compound at 10 μM, TGF-β (10 ng/mL), 24 hours, band intensity vs TGF-β only
Outline: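 CFSC hepatic stellate cells in serum-free DMEM treated 24 h at 37 °C with compound at 10 μM plus TGF-β (10 ng/mL). α-SMA measured by Western blot with β-actin, ECL detection, densitometry. Percent inhibition is decrease in band intensity versus TGF-β-only cells.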

Structure (SMILES)	inhibition at 3.3 µM [1] [%]	inhibition at 10 µM [1] [%]	inhibition at 3.3 µM (HepG2 (liver cancer)) [%]	inhibition at 10 µM (HepG2 (liver cancer)) [%]	inhibition at 3.3 µM (HeLa (cervical cancer)) [%]	inhibition at 10 µM (HeLa (cervical cancer)) [%]	inhibition at 3.3 µM [2] [%]	inhibition at 10 µM [2] [%]	inhibition at 3.3 µM (SW480 (colon cancer)) [%]	inhibition at 10 µM (SW480 (colon cancer)) [%]	inhibition at 3.3 µM [3] [%]	inhibition at 10 µM [3] [%]	inhibition at 3.3 µM [4] [%]	inhibition at 10 µM [4] [%]	inhibition at 10 µM [5] [%]
O=C(O)CC1=C(Cc2ccc(Oc3ccc(F)cc3)cc2)/C(=C/C2CC2)c2ccc(F)cc21 [A106, (Z)-2-(1-(Cyclopropylmethylene)-5-fluoro-2-(4-(4-fluorophenoxy)benzyl)-1H-inden-3-yl)acetic acid]	< 30	≥ 50	< 30	≥ 50	30 to 50	≥ 50	30 to 50	≥ 50	< 30	≥ 50	30 to 50	≥ 50	< 30	≥ 50	> 80
COc1ccc(/C=C2/C(Cc3ccc(Oc4ccc(F)cc4)cc3)=C(CC(=O)O)c3cc(F)ccc32)cc1 [A110, (Z)-2-(5-Fluoro-2-(4-(4-fluorophenoxy)benzyl)-1-(4-methoxybenzylidene)-1H-inden-3-yl)acetic acid]	≥ 50	≥ 50	< 30	< 30	< 30	≥ 50	< 30	≥ 50	< 30	≥ 50	< 30	≥ 50	< 30	≥ 50	> 80
CC1=C(CC(=O)O)c2c(F)cccc2/C1=C\c1ccc(COc2ccccc2)cc1 [B6, (Z)-2-(4-Fluoro-2-methyl-1-(4-(phenoxymethyl)benzylidene)-1H-inden-3-yl)-acetic acid]	≥ 50	≥ 50	< 30	≥ 50	< 30	≥ 50	30 to 50	30 to 50	< 30	< 30	< 30	30 to 50	< 30	≥ 50	> 80
O=C(O)CC1=C(Cc2ccc(Oc3ccc(F)cc3)cc2)/C(=C/c2ccc(F)cc2)c2ccc(F)cc21 [A105, (Z)-2-(5-Fluoro-1-(4-fluorobenzylidene)-2-(4-(4-fluorophenoxy)benzyl)-1H-inden-3-yl)acetic acid]	≥ 50	≥ 50	≥ 50	≥ 50	≥ 50	≥ 50	≥ 50	≥ 50	≥ 50	≥ 50	≥ 50	≥ 50	≥ 50	≥ 50	> 80
CCc1ccc2c(c1)C(CC(=O)O)=C(C)/C2=C/c1ccc(Oc2ccc(F)cc2)cc1 [C5, (Z)-2-(5-Ethyl-1-(4-(4-fluorophenoxy)benzylidene)-2-methyl-1H-inden-3-yl)-acetic acid]	< 30	≥ 50	≥ 50	≥ 50	< 30	≥ 50	30 to 50	30 to 50	< 30	< 30	< 30	≥ 50	≥ 50	≥ 50	> 80
